A short description of this data set: lipid maldigestion or malabsorption animal model (Orlistat): EPA incorporation in red blood cell lipids. Type of data set: in vivo, rats. Here is the method: The inventors tested their concept in a lipid maldigestion/malabsorption animal model. The malabsorption condition was obtained using Orlistat®, a well known pancreatic and gastric lipases inhibitor. Animals were fed with long-chain polyunsaturated fatty acid (LC-PUFA) supplements containing mainly eicosapentaenoic (EPA) acid. Fish oil was used as a source of triacylglycerols and different EPA glycerides, for example those of FIG. 1, were evaluated. At different time intervals the fatty acid profile of red blood cell and plasma lipids was assessed. At the end of the experiment, fatty acid profiles of different tissues were determined. […] However, if LC-PUFA are provided as sn-1(3) MAGs the incorporation in tissue is not altered in conditions of lipid malabsorption/maldigestion.
Treatments: Control rats fed fish oil with or without Orlistat and rats fed with MAGs described in FIG. 1. Values are means±SEM (n=6).
The concept was tested in a lipid maldigestion or malabsorption animal model. The maldigestion or malabsorption condition was obtained using Orlistat, a well known pancreatic and gastric lipases inhibitor. Animals were fed during 21 days with long-chain polyunsaturated fatty acid (LC-PUFAs) supplements containing mainly eicosapentaenoic (EPA) acid. Fish oil was used as a source of triacylglycerols and the different EPA glycerides provided in FIG. 1 and purchased from Cognis GmbH, Germany, were evaluated. Orlistat was given at a level sufficient to decrease lipid absorption by 40%. A group receiving fish oil without Orlistat was used as a positive control. At different time intervals (D-3, D7, D14 and D21), fatty acid profile of red blood cell and plasma lipids were performed. At the end of the experiment, fatty acid profiles of different tissues were determined.
The main objective was to follow the level of EPA in red blood cell and plasma lipids. The main comparison evaluated was the difference in EPA level between groups receiving EPA containing MAGs (FIG. 1) in combination with Orlistat and the positive control group […].

With `CCCCCCCCCCC[C@@H](C[C@@H]1OC(=O)[C@H]1CCCCCC)OC(=O)[C@H](CC(C)C)NC=O` [Orlistat, reference compound], under “group receiving fish oil in combination or not with Orlistat, validates the model”, the “effect on EPA incorporation in red blood cells” value was “decrease EPA incorporation in red blood cells”.

For `CC/C=C\C/C=C\C/C=C\C/C=C\C/C=C\CCCC(=O)OCC(O)CO` (stereo not shown) [sn-1(3) monoeicosapentaenoylglycerol, sn-1(3)-monoeicosapentaenoylglycerol], the “level of EPA incorporated in red blood cells, compared with the fish oil group (without Orlistat)” value (rats fed MAGs in combination with Orlistat, day 7, FIG. 2) is given as “even higher than the fish oil group”. Also, the “level of EPA incorporated in red blood cells, compared with the fish oil+Orlistat group” value (rats fed MAGs in combination with Orlistat, day 7, all P values lower than 0.05, FIG. 2) is given as “statistically higher”. For the same molecule, the “fatty acid absorption compared with fish oil under normal conditions” value (under maldigestion/malabsorption conditions, FIG. 2) is “better absorbed”.

Values taken from US9000039B2, “Sn-1(3) monoacylglycerides and lipid absorption” (Nestec S.A., priority 2011, dated 2015).
